Legend:
[1] = Solubility of menthol in composition ingredients; format: physicochemical; conditions: in liquid paraffin, white soft paraffin and essential oils
[2] = tested on: burning pain sensations in the vicinity of the vulva or anus; experiment: Other trials of mint extract compositions (gel, cream, wipes, spray) applied topically against burning pains; format: in vivo, human
Description: The composition may comprise the extract or equivalent up to 10% w/w but it is preferably present in a concentration of not more than substantially 5% w/w of the composition.
Additional to these trials, compositions were prepared using menthol (and others using peppermint oil) embodied in a light cream (which included water) with which small pieces of soft cloth were impregnated to form wipes. […] Alternative combinations of ingredients could be utilised, e.g. as known to those skilled in the art, possibly including a pharmaceutically acceptable excipient for the active ingredient/s. Preferably, the composition should contain one or more of vitamins E, A and D combined with a moisturizing element in white soft paraffin form (obtained as “Vaseline”, Registered Trade Mark in the UK) or aloe form for delicate skins. The composition should preferably be formulated so that it is effectively greaseless and non-staining. It should not contain hexachlorophene.

CC1CCC(C(C)C)C(O)C1 (centres unmarked) [menthol]
solubility [1]: at least 10 % w/w
outcome of trials as wipes ([2]; light cream (including water) impregnated on pieces of soft cloth): just as successful
relief compared with peppermint oil ([2]; menthol used instead of peppermint oil): Much improved relief
outcome of trials as spray ([2]; spray including glycols, glycerol and ethanol): used successfully
effect relative to peppermint oil ([2]; summary statement, related mint extracts): substantially more
